This note sets out measurements from BindingDB's records for doi:10.1021/jm970550g (Northwestern University, 1998).

A word on the Ki: it is the equilibrium dissociation constant of an inhibitor or competing ligand from its target. Higher therefore signals lower affinity.

A short description of this assay: Compound was tested for binding affinity against neuronal nitric oxide synthase(nNOS).

For the compound `C=CCNC(=N)NCCCC(N)C(C)=O` (stereo not drawn) [1-Acetyl-4-(N'-allyl-guanidino)-butyl-ammonium], the Ki is 200 nM. The figure for `CCNC(=N)NCCCC(N)C(=O)O` (stereo not drawn) [2-Amino-5-(N'-ethyl-guanidino)-pentanoic acid] is 16000 nM. `C#CCNC(=N)NCCCC(N)C(=O)O` (stereo not drawn) [2-Amino-5-(N'-prop-2-ynyl-guanidino)-pentanoic acid] had an inhibition constant Ki of 430 nM.
